# Measurements: patent publication US7517851B2, “Chlamydia oligosaccharides” (priority 1996, dated 2009)
# Where two headings read alike, the source gives them in different places.
# Tested on: Chlamydia trachomatis L2/434/Bu
# Type: cell-based
# Settings: HeLa cells, maximum concentration (20 μg) tested
substance,measurement,setting,value
oligomannose 9,% INHIBITION (infectivity inhibition),first of two separate sets of experiments,64%
same,% INHIBITION (infectivity inhibition),second of two separate sets of experiments,62%
